Assay results from patent US9988381B2, “Five-member-heterocycle fused pyridine compounds, method of producing the same, and use thereof” (SHANGHAI INSTITUTE OF MATERIA MEDICA, CHINESE ACADEMY OF …, priority 2013, dated 2018).
Like-named read-outs stand apart in the source and are kept apart here.

Tests used:
BaF3/TPR-Met cell = experiment: Test III: growth inhibition of engineered BaF3/TPR-Met cells (MTT); format: cell-based; settings: for inhibition at 0.2 µM / inhibition at 1 µM: Mus musculus; for inhibition at 0.2 µM: read-out: Cell proliferation inhibition rate at 200 nM (%); for inhibition at 1 µM: read-out: Cell proliferation inhibition rate at 1 μM (%)
Procedure: Assays on the growth inhibition of the compounds against engineered BaF3/TPR-Met cell (engineered cell line having TPR-Met fusion protein stably expressed in cytoplasm, persistently activated, Met dependent sensitive cell line; BaF3 cell was purchased from DSMZ, German) were detected using microculture tetrozolium (MTT) staining. A certain amount of BaF3/TPR-Met cells at log phase were inoculated into 96-well culture plate at 90 µL per well, incubated overnight and then 10 μL compound at various concentrations or vehicle control (normal saline) was added, each concentration was tested in triplicate. After incubation with compound for 72 hours, the incubation was terminated, MTT solution (5 mg/mL) was added at 20 μL per well, incubated at 37° C. for 4 hours, then 100 μL triplet solution (10% SDS−5% isobutanol−0.01M HCl) was added, incubated overnight at 37° C., OD value was measured at 570 nm. […] Experiments were conducted in duplicates.

[1] = target: T1, c-Met kinase domain recombinant protein (Homo sapiens, UniProt P08581); experiment: biochemical; settings: for inhibition at 0.1 µM: read-out: Average inhibition rate at 0.1 μM (%); for inhibition at 1 µM: read-out: Average inhibition rate at 1 μM (%); for inhibition at 10 µM: read-out: Average inhibition rate at 10 μM (%)
T1 construct: 50 μL diluted solution of c-Met kinase domain recombinant protein in reaction buffer was added to initiate the reaction
T1 sequence (P08581 1078-1345 limits assumed): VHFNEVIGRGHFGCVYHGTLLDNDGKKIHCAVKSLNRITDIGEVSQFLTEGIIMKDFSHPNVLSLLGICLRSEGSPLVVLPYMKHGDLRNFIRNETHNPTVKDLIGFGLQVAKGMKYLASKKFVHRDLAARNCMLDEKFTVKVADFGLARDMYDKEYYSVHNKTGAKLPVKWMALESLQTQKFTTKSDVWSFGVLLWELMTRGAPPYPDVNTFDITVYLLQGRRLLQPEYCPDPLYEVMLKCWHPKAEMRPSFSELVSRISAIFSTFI
Outline: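 IC50 came from a four-parameter fit of inhibition rates measured by anti-phosphotyrosine (PY99/HRP) ELISA at 490 nm. The reaction ran 1 hour at 37° C with 5 μM ATP, c-Met kinase domain protein and Poly(Glu,Tyr)4:1-coated wells, in HEPES pH 7.4 buffer containing MgCl2, MnCl2, Na3VO4 and DTT.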

[2] = target: T1, c-Met kinase domain recombinant protein; experiment: biochemical; settings: for inhibition at 10 µM: read-out: Inhibition rate at 10 μM (%)
Outline: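 Recombinant c-Met kinase domain phosphorylated immobilised Poly(Glu,Tyr)4:1 for 1 h at 37 °C in 50 mM HEPES pH 7.4, 50 mM MgCl2, 0.5 mM MnCl2, 0.2 mM Na3VO4, 1 mM DTT with ATP. Product measured by anti-phosphotyrosine PY99 ELISA (HRP, 490 nm), giving percent inhibition; ATP-free wells served as control.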

| SMILES | inhibition at 0.2 µM (BaF3/TPR-Met cell; BaF3, 72 h) | inhibition at 1 µM (BaF3/TPR-Met cell; BaF3, 72 h) | IC50 [1] | inhibition at 0.1 µM [1] | inhibition at 1 µM [1] | inhibition at 10 µM [1] | inhibition at 10 µM [2] | inhibition at 0.2 µM (BaF3/TPR-Met cell; BaF3/TPR-Met, 200 nM, 72 hours) | inhibition at 1 µM (BaF3/TPR-Met cell; BaF3/TPR-Met, 1 μM, 72 hours) | Cell proliferation inhibition rate at 1 μM (%) (BaF3/TPR-Met cell; BaF3/TPR-Met, 1 μM, 72 hours) | Average inhibition rate at 0.1 μM (%) ([1]; compound 0.1 μM) | Average inhibition rate at 1 μM (%) ([1]; compound 1 μM) | Average inhibition rate at 10 μM (%) ([1]; compound 10 μM, Table 2) | Inhibition rate at 10 μM (%) ([2]; compound 10 μM, Table 1) |
| --- | --- | --- | --- | --- | --- | --- | --- | --- | --- | --- | --- | --- | --- | --- |
| CC(C)(C)OC(=O)N1CCC(n2cc(-c3cnc4cnn(S(=O)(=O)c5cnc6ccccn56)c4c3)cn2)CC1 [Example 44, 1-(imidazo[1,2-a]pyridine-3-sulfonyl)-6-{{1-[(1-t-butoxycarbonyl)-4-piperidinyl]}-4-pyrazolyl}-1-H-pyrazolo[4,3-b]pyridine] | 95% | 95.8% | 6.9 ± 1.9 nM | 74.6% | 78.6% | 87.5% | 87.5% | – | – | – | – | – | – | – |
| O=S(=O)(c1cnc2ccccn12)n1ncc2ncc(-c3cnn(C4CCNCC4)c3)cc21 [Example 45, 1-(imidazo[1,2-a]pyridine-3-sulfonyl)-6-{[1-(4-piperidinyl)]-4-pyrazolyl}-1-H-pyrazolo[4,3-b]pyridine] | 27.9% | 95.9% | 2.9 ± 0.6 nM | 73.4% | 76.5% | 89.6% | 89.6% | – | – | – | – | – | – | – |
| CC(C)(C)OC(=O)N1CCC(n2cc(-c3cnc4cnn(S(=O)(=O)c5cnn6cccnc56)c4c3)cn2)CC1 [Example 46, 1-(pyrazolo[1,5-a]pyrimidine-3-sulfonyl)-6-{{1-[(1-t-butoxycarbonyl)-4-piperidinyl]}-4-pyrazolyl}-1-H-pyrazolo[4,3-b]pyridine] | – | – | – | 55.9% | 65% | 81.3% | 81.3% | 33.7% | 68% | – | – | – | – | – |
| CC(C)(C)OC(=O)N1CCC(n2cc(-c3cnc4cnn(S(=O)(=O)c5cnc6cccnn56)c4c3)cn2)CC1 [Example 49, 1-(imidazo[1,2-b]pyridazine-3-sulfonyl)-6-{{1-[(1-t-butoxycarbonyl)-4-piperidinyl]}-4-pyrazolyl}-1-H-pyrazolo[4,3-b]pyridine] | – | – | – | 71% | 74.5% | 76.7% | 76.7% | 28.4% | 90.5% | – | – | – | – | – |
| O=S(=O)(c1cnc2cccnn12)n1ncc2ncc(-c3cnn(C4CCNCC4)c3)cc21 [Example 51] | – | – | – | 64.6% | 66.7% | 72.3% | 72.3% | 15.3% | 7.7% | – | – | – | – | – |
| CCN1CCC(n2cc(-c3cnc4cnn(S(=O)(=O)c5cnc6ccccn56)c4c3)cn2)CC1 [Example 53, 1-(imidazo[1,2-a]pyridine-3-sulfonyl)-6-{{1-[(1-ethyl)-4-piperidinyl]}-4-pyrazolyl}-1-H-pyrazolo[4,3-b]pyridine] | – | – | – | 67.5% | 68.4% | 74.1% | 65.7% | – | 90.9% | – | – | – | – | – |
| CC(=O)N1CCC(n2cc(-c3cnc4cnn(S(=O)(=O)c5cnc6ccccn56)c4c3)cn2)CC1 [Example 54, 1-(imidazo[1,2-a]pyridine-3-sulfonyl)-6-{{1-[(1-acetyl)-4-piperidinyl]}-4-pyrazolyl}-1-H-pyrazolo[4,3-b]pyridine] | – | – | – | 55.9% | 57.9% | 62.1% | 70.7% | 88.3% | 89.6% | – | – | – | – | – |
| O=C(C1CC1)N1CCC(n2cc(-c3cnc4cnn(S(=O)(=O)c5cnc6ccccn56)c4c3)cn2)CC1 [Example 55, 1-(imidazo[1,2-a]pyridine-3-sulfonyl)-6-{{1-[(1-cyclopropylcarbonyl)-4-piperidinyl]}-4-pyrazolyl}-1-H-pyrazolo[4,3-b]pyridine] | 89.3% | 89.8% | 1.3 ± 0.1 nM | 58.8% | 58.3% | 60.8% | 74.1% | – | – | – | – | – | – | – |
| O=C(C1CCCC1)N1CCC(n2cc(-c3cnc4cnn(S(=O)(=O)c5cnc6ccccn56)c4c3)cn2)CC1 [Example 56, 1-(imidazo[1,2-a]pyridine-3-sulfonyl)-6-{{1-[(1-cyclopentylcarbonyl)-4-piperidinyl]}-4-pyrazolyl}-1-H-pyrazolo[4,3-b]pyridine] | – | – | – | 53.3% | 56.3% | 58.9% | 62.1% | 79.1% | 90.6% | – | – | – | – | – |
| O=C(C1CCCCC1)N1CCC(n2cc(-c3cnc4cnn(S(=O)(=O)c5cnc6ccccn56)c4c3)cn2)CC1 [Example 57, 1-(imidazo[1,2-a]pyridine-3-sulfonyl)-6-{{1-[(1-cyclohexylcarbonyl)-4-piperidinyl]}-4-pyrazolyl}-1-H-pyrazolo[4,3-b]pyridine] | – | – | – | 52.4% | 54.5% | 60.3% | 60.8% | 86.8% | 89.5% | – | – | – | – | – |
| CC(C)N1CCC(n2cc(-c3cnc4cnn(S(=O)(=O)c5cnc6ccccn56)c4c3)cn2)CC1 [Example 59, 1-(imidazo[1,2-a]pyridine-3-sulfonyl)-6-{{1-[(1-isopropyl)-4-piperidinyl]}-4-pyrazolyl}-1-H-pyrazolo[4,3-b]pyridine] | – | – | – | 51.6% | 51.9% | 59.8% | 60.3% | 70.6% | 89.8% | – | – | – | – | – |
| O=S(=O)(c1cnc2ccccn12)n1ncc2ncc(-c3cnn(C4CCN(C5CCCC5)CC4)c3)cc21 [Example 60, 1-(imidazo[1,2-a]pyridine-3-sulfonyl)-6-{{1-[(1-cyclopentyl)-4-piperidinyl]}-4-pyrazolyl}-1-H-pyrazolo[4,3-b]pyridine] | – | – | – | 50.1% | 53.4% | 62.6% | 57.4% | 84.8% | 89.4% | – | – | – | – | – |
| CC(C)(C)OC(=O)N1CCC(n2cc(-c3cnc4cnn(S(=O)(=O)c5cnc6ccc(Cl)nn56)c4c3)cn2)CC1 [Example 61] | – | – | – | 73.7% | 76% | 83.2% | 59.8% | 83.1% | 91.7% | – | – | – | – | – |
| CC(C)(C)OC(=O)N1CCC(n2cc(-c3cnc4cnn(S(=O)(=O)c5cnc6ccc(C(F)(F)F)cn56)c4c3)cn2)CC1 [Example 63] | – | – | – | 59% | 60.4% | 63% | 83.2% | – | 66.5% | – | – | – | – | – |
| Cl.O=S(=O)(c1cnc2ccccn12)n1ncc2ncc(-c3cnn(C4CCNCC4)c3)cc21 [Example 66, 1-(imidazo[1,2-a]pyridine-3-sulfonyl)-6-{[1-(4-piperidinyl)]-4-pyrazolyl}-1-H-pyrazolo[4,3-b]pyridine chloride] | – | – | – | – | – | – | – | – | – | 92.7% | 73.3% | 75.8% | 79.9% | 63% |
| CC(C)(C)OC(=O)N1CCC(n2cc(-c3cnc4cnn(S(=O)(=O)c5cnc6ccc(Cl)cn56)c4c3)cn2)CC1 [Example 67] | – | – | – | 63.1% | 64.6% | 68.2% | 66% | 90.3% | 91.6% | – | – | – | – | – |
